The test system of experiment [1] is HT29 cells. As to the kind of experiment: Screening assay for gene transfer activators: adenovirus luciferase or β-galactosidase constructs on confluent cells with test compound. Format: cell-based, human. Further details: key to Activity (gene transfer activator): +++ = more active; ++ = active; + = less active. The note with it: for Activity (gene transfer activator): gene transfer in presence vs absence of test compound. On the procedure:
A gene transfer activating compound is identified by an assay which determines whether gene transfer occurs to a greater extent in the presence of a test compound than in the absence. For example, confluent cells plated in multi-well cell culture units are exposed to adenovirus luciferase or β-galactosidase constructs in the presence of the test compound. The test compound is administered to cells before, after or concurrently with the adenovirus. The extent of gene transfer is measured by visual inspection or quantitative measurement of luciferase or β-galactosidase in the presence and absence of the test compound.
HT29 cells are grown in 96-well plates. The cells are seeded at near confluency, about 300,000 cells per well, and infected with adenovirus 3-4 days later. […] For screening purposes, cells are grown on plastic. […] The activity of candidate compounds is also confirmed using polarized monolayers grown on filters. Once confluent, HT29 cells are very difficult to transduce with adenoviral constructs. Fewer than 1 in 100 cells express adenoviral transgenes at multiplicity of infection (MOI) of approximately 50. A replication deficient adenovirus encoding firefly luciferase or the E. coli LacZ gene (β-galactosidase) at an MOI of 50 for each well of cells in low serum medium is applied for 4 hours at 37° C. Test drugs are incubated along with the virus. Forty-eight hours later, the cells are assayed for β-galactosidase or luciferase by standard techniques. For example, β-galactosidase is assayed by incubating cells with a β-galactosidase substrate such as 1 mg/ml X-gal 5-bromo-4-chloro-3-indolyl B-D-galactopyranoside (X-gal), overnight at 37° C. When X-gal is cleaved by β-galactosidase, a bright blue precipitate is formed. The intensity of the blue color can be estimated visually or measured by optical densitometry to evaluate the efficiency of adenoviral transduction. Luciferase is assayed using a commercially available kit (Promega) which allows quantitative measurements of adenoviral gene transfer.

The test system of experiment [2] is HT29 cells. As to the kind of experiment: Adenoviral LacZ gene transfer to confluent HT29 cells, β-galactosidase assay (Example 2). The note with it: for activation of adenovirus gene transfer: HT29 cells, LacZ adenovirus MOI 0.1-10, 4 hours, assay 48 hours later. Format: cell-based, human. On the procedure:
HT29 or HeLa cells are grown in 96-well plates. The HT29 cells are seeded at near confluency, about 300,000 cells per well, and infected with adenovirus 3-4 days later. Confluent HeLa cells are used as a positive control. […] A replication deficient adenovirus encoding the E. coli LacZ gene is applied at an MOI of 0.1-10 to wells of cells in low serum medium for 4 hours at 37° C. Gene transfer activating compounds are incubated along with the virus at concentrations of 10 micromolar or 100 micromolar. A set of cells is incubated with virus but no gene transfer activating compound. Forty-eight hours later, the cells are assayed for β-galactosidase by standard techniques. […] FIGS. 2 and 6 illustrate the results using compound 6975 and 8496 respectively.

Experiment [3] deals with PC-3 human prostate cell tumors. Put plainly: In vivo adenoviral gene transfer to prostate tumors, PNP activity (Example 5). The following applies: 1 mM compound, 2-3×10^9 adenoviral particles per tumor, FIG. 5. Further details: species or system mice. Here is the method:
Prostate tumors are established in suitable hosts and PNP activity assayed in the presence or absence of adenovirus. Approximately 2-3×10^9 adenoviral particles are administered per tumor in the presence of 1 mM of compound 6975 or in the absence of the compound. Transgene activity is also assayed in livers. Further details of the method are described in (3).

The subject of experiment [4] is HT29 cells. Put plainly: Adenoviral LacZ gene transfer to HT29 cells, comparison with EGTA (Example 4). The class given is cell-based, human. The note with it: 100 micromolar compound vs 5 millimolar EGTA, MOI 10. On the procedure: HT29 cells are grown in 96-well plates. The cells are seeded at near confluency, about 300,000 cells per well, and infected with adenovirus 3-4 days later. […] A replication deficient adenovirus encoding LacZ is applied at an MOI of 10 to wells of cells in low serum medium for 4 hours at 37° C. Compound 6975 is incubated along with the virus at a concentration of 100 micromolar. A second set of cells is incubated with virus but no gene transfer activating compound and a third set of cells is incubated with virus and 5 millimolar EGTA. Forty-eight hours later, the cells are assayed for […] by standard techniques.

The subject of experiment [5] is IB3 cystic fibrosis airway epithelial cells. As to the kind of experiment: Adenoviral luciferase gene transfer to IB3 cells (Example 3). The class given is cell-based. The following applies: 100 micromolar compound, MOI 5 or 10, FIG. 3. On the procedure:
IB3 cystic fibrosis airway epithelial cells are grown in 96-well plates. The cells are seeded at near confluency, about 300,000 cells per well, and infected with adenovirus 3-4 days later. A replication deficient adenovirus encoding luciferase is applied at an MOI of 5 or 10 to wells of cells in low serum medium for 4 hours at 37° C. Compound 6975 is incubated along with the virus at a concentration of 100 micromolar. A set of cells is incubated with virus but no gene transfer activating compound. Forty-eight hours later, the cells are assayed for luciferase by standard techniques. FIG. 3 presents the results of this assay in a graph.

Regarding `[H]/N=C(\N)N/N=C(\C)c1ccccn1` [Compound 6883], the “Activity (gene transfer activator)” value in experiment [1] is “+”.
Still for that read-out and setting: with `[H]/N=C(/N/N=C(\C)c1ccccn1)Nc1ccccc1` [Compound 6898] the entry was “+”.
As for `[H]/N=C(/N/N=C(\C)c1ccccn1)Nc1ccccc1` [Compound 6975], the “activation of adenovirus gene transfer” value in experiment [2] (10 micromolar compound) and in experiment [2] (100 micromolar compound) was “show activation of adenovirus gene transfer” in each case. Further, in experiment [3], the “in vivo adenoviral gene transfer to tumors” value is “activates in vivo adenoviral gene transfer to PC-3 human prostate cell tumors in mice”. Besides, in experiment [4], the “adenovirus gene transfer efficiency compared with EGTA” value is “activates adenovirus gene transfer more efficiently than EGTA”. In addition, in experiment [5], the “adenoviral gene transfer of luciferase to IB3 cells” value is recorded as “activates adenoviral gene transfer of luciferase”. The “activating adenovirus-mediated gene transfer and expression in cells” value in experiment [1] (FIG. 1) is “effective in activating adenovirus-mediated gene transfer and expression in cells”. Also, the “Activity (gene transfer activator)” value in experiment [1] is on record as “+++”.
On to `C/C(=N/N=C(/N)NO)c1ccccn1` [Compound 7036], for which the “Activity (gene transfer activator)” value in experiment [1] is “++”.
In the case of `C/C(=N/NC(=N)NCc1ccccn1)c1ccccn1` [Compound 7064], the “Activity (gene transfer activator)” value in experiment [1] was “+”.
Regarding `[H]/N=c1/ncn([C@@H]2O[C@H](CO)[C@@H](O)[C@H]2O)c2[nH]cnc12` [Compound 8496], the “adenoviral gene transfer of LacZ to HT29 cells” value in experiment [2] (FIG. 6) is given as “activates adenoviral gene transfer of LacZ to HT29 cells”. Moreover, the “activation of adenovirus gene transfer” value in experiment [2] (10 micromolar compound) and in experiment [2] (100 micromolar compound) was “show activation of adenovirus gene transfer” throughout. Also, the “Activity (gene transfer activator)” value in experiment [1] was “+++”.

These data come from patent US20040204375A1, “Gene delivery compounds” (priority 2001, published 2004).
